Article PMC7460883, “Dual Substrate Specificity of the Rutinosidase from Aspergillus niger and the Role of Its Substrate Tunnel” (International Journal of Molecular Sciences, 2020)

Target: T1, AnRut (recombinant rutinosidase from Aspergillus niger) (Aspergillus niger, UniProt A0A6B9UJ04)
T1 construct: vector pPICZalphaA-RUT, secreted as fusion product by Pichia pastoris KM71H; crude culture medium, ca 66 kDa glycosylated (45 kDa deglycosylated), dimer
T1 sequence (A0A6B9UJ04 20-386): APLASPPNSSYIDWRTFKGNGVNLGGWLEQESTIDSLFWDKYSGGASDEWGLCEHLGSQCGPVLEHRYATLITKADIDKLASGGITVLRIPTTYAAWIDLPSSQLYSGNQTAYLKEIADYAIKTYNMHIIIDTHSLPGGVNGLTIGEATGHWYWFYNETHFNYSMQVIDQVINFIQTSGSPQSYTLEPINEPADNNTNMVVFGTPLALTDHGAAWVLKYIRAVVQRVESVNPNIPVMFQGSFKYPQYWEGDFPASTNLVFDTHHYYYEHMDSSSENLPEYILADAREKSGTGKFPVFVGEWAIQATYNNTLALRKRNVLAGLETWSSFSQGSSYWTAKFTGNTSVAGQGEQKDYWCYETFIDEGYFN
Test: transglycosylation (glycosyl donor), TLC / product isolation
Type: biochemical
Conditions: pH 3.5, 36 °C; crude culture medium with secreted recombinant enzyme; suspended substrate; acceptors 3-9

Compound	transglycosylation (glycosyl donor), TLC / product isolation
C[C@@H]1O[C@@H](OC[C@H]2O[C@@H](Oc3c(-c4ccc(O)c(O)c4)oc4cc(O)cc(O)c4c3=O)[C@H](O)[C@@H](O)[C@@H]2O)[C@H](O)[C@H](O)[C@H]1O [compound 1, rutin]	both AnRut activities, i.e., rutinosidase (with rutin donor) and glucosidase (with isoquercitrin donor)
O=c1c(O[C@@H]2O[C@H](CO)[C@@H](O)[C@H](O)[C@H]2O)c(-c2ccc(O)c(O)c2)oc2cc(O)cc(O)c12 [compound 2, isoquercitrin]	both AnRut activities, i.e., rutinosidase (with rutin donor) and glucosidase (with isoquercitrin donor)
